Measurements taken from patent US8119691B2, “Method for treating airway hyper-responsiveness with lipoxin analogs” (National Institutes of Health (NIH), priority 2001, dated 2012).

Tests used:
OVA sensitized mice [1] = assay: Lung histopathology of OVA sensitized and aerosol challenged mice; assay type: in vivo, mouse (BALB/c); settings: LXa 10 μg; OVA-allergic mice
Method: FIG. 2. Lung histopathology from LXa treated mice. Mice were sensitized and aerosol challenged with OVA in the absence (left column) or presence (right column) of LXa (10 μg). Representative (n=3) lung tissue sections (magnifications: ×40 (a,b), ×100 (d), ×200 (c,e) and ×400 (f)) were obtained from formalin-fixed, paraffin-embedded lung tissue, prepared and stained with hematoxylin and eosin. Arrows denote eosinophils; br, bronchus; v, vessel.
(§1) Sensitization and challenge protocols. Five to seven week old male BALB/c (Charles River Laboratories, Wilmington, Mass.) or female hCD11b-hALX FvB transgenic mice were housed in isolation cages under viral antibody-free conditions. […] On day 18, 24 h after the last aerosol challenge, airway responsiveness to intravenous methacholine (33-1000 μg/kg) was measured, bilateral bronchoalveolar lavage (BAL) (2 aliquots of 1 ml PBS plus 0.6 mM EDTA) was performed and tissues (whole blood, lungs, mediastinal lymph nodes and spleen) were harvested for histological analysis. Lung resistance (RL) was measured using a sealed constant mass plethysmograph. […] For mice studied using a whole body plethysmograph to assess airway responsiveness (Buxco), each mouse was placed into a chamber and box pressure/time waveform was analyzed to yield the indicator of airflow obstruction, enhanced pause (Penh). […] Readings were initiated at 3 min and continued for 12 min. […]

[2] = molecular target: T1, recombinant cysLT1 receptors (Homo sapiens, UniProt Q9Y271); settings: CHO cells, in vitro (ref. 12); cited from earlier work
T1 construct: host or cells: Chinese hamster ovary cells (recombinant expression)
T1 sequence (Q9Y271 1-337): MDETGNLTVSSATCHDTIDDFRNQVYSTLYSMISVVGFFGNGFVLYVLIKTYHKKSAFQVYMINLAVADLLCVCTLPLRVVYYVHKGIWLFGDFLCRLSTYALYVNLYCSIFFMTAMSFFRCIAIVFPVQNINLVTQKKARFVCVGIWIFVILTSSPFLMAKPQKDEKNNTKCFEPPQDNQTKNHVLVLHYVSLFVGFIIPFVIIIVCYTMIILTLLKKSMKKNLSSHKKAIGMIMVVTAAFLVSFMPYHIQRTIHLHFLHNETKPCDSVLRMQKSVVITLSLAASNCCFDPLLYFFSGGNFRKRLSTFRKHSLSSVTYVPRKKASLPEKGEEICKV

OVA sensitized mice [3] = assay: Airway responsiveness to intravenous methacholine (lung resistance, ED200) in OVA sensitized and aerosol challenged mice; assay type: in vivo, mouse (BALB/c)
Method: FIG. 1. Inhibition of airway hyper-responsiveness with LXa. OVA sensitized mice were treated with LXa ([…]) (o) or vehicle (•) prior to OVA aerosol challenge. Airway reactivity was determined by methacholine-dependent change in lung resistance (a) and calculation of ED200 (b). Results are expressed as mean±SEM (n≧17 in (a) and n≧6 (b)). *P<0.05 by Student's t-test compared to control animals.
After systemic sensitization to ovalbumin (OVA, 10 μg i.p.), male Balb/c mice (5-7 weeks) were exposed to aerosolized OVA (6%, 25 min) on four successive days. 24 hours after the last aerosol, bronchial responsiveness to intravenous methacholine was determined (as in refs. 14, 15), bronchoalveolar lavage was performed and tissues were harvested for microscopy. […] After allergen sensitization and aerosol challenge, high levels of both CysLT (139.0+/−27.3 pg CysLT/ml, mean+/−SEM, n=9) and PGE2 (1117.7+/−103.8 pg PGE2/ml, mean+/−SEM, n=5) in bronchoalveolar lavage (BAL) (Table 1) were identified. In these same BAL fluids, LXA4 was also present (15.0+/−3.3 pg LXA4/ml, mean+/−SEM, n=5) at levels similar to LTB4 (6.4+/−2.3 pg LTB4/ml, mean+/−SEM, n=9), but in 10- to 100-fold lower concentrations than CysLT's and PGE2, respectively (Table 1). LXA4 was not detected in cell-free BAL supernatants from non-immunized mice.
as §1, with “conditions. After Harvard Medical Area IRB approval (Protocol #02570), mice were sensitized with intraperitoneal injections of ovalbumin (OVA) (Grade III; Sigma Chemical Co., St. Louis, Mo.) (10 μg) plus 1 mg aluminum hydroxide (ALUM) (J.T. Baker Chemical Co.; Phillipsburg, N.J.) as adjuvant in 0.2 ml PBS on days 0 and 7.” for “conditions.”, “min. Peak and one min average Penh values were determined. Serum total IgE levels were determined by ELISA (Crystal Chem, Chicago, Ill.).” for “min.”

[4] = cited from earlier work

Compound: COC(=O)CCC[C@H](O)[C@H](O)/C=C/C=C/C=C\C=C\[C@H](O)COc1ccc(F)cc1 [LXa, 15-epi,16-para-fluoro-phenoxy-LXA4-methyl ester]
- lung tissue leukocyte infiltration (tissue eosinophils and lymphocytes) and vascular injury (OVA sensitized mice [1]): significantly reduced leukocyte infiltration
- competition for binding at LTD4 recognition sites and recombinant cysLT1 receptors [2]: compete for binding with high affinity at LTD4 recognition sites
- ED200 to methacholine (OVA sensitized mice [3]; LXa 10 μg i.v., OVA sensitized and challenged mice): approximated the responses of control mice that had been sensitized but not challenged with OVA
- ED200 to methacholine, LXa administration alone (OVA sensitized mice [3]; LXa alone, compared to control mice): no significant differences in ED200 compared to control mice
- bronchoconstriction in response to methacholine (change in lung resistance) (OVA sensitized mice [3]; LXa i.v. at least 60 min prior to OVA challenge, OVA sensitized mice): significantly inhibited bronchoconstriction in response to methacholine in a dose-dependent manner
- deleterious physiologic or behavioral effects (OVA sensitized mice [3]; LXa treated mice): Neither deleterious physiologic nor behavioral effects were evident
- metabolic inactivation [4]: resists metabolic inactivation
